For 1 compound, remaining binding results are on record in PMC7206119, “RIP1 inhibition blocks inflammatory diseases but not tumor growth or metastases” (Cell Death and Differentiation, 2019).

Among the targets are PIK3CD (Homo sapiens, UniProt O00329); PLK2 (Homo sapiens, UniProt Q9NYY3); EGFR(L747-T751del,Sins) (Homo sapiens, UniProt P00533, DEL747-750/T751S); WNK3 (Homo sapiens, UniProt Q9BYP7); IGF1R (Homo sapiens, UniProt P08069); PLK3 (Homo sapiens, UniProt Q9H4B4); PIM2 (Homo sapiens, UniProt Q9P1W9); MET(Y1235D) (Homo sapiens, UniProt P08581, Y1235D); TIE1 (Homo sapiens, UniProt P35590); EPHA4 (Homo sapiens, UniProt P54764); EIF2AK1 (Homo sapiens, UniProt Q9BQI3); AURKB (Homo sapiens, UniProt Q96GD4); RIOK3 (Homo sapiens, UniProt O14730); WNK1 (Homo sapiens, UniProt Q9H4A3).

Common to all, as to test: biochemical
Set-up in all cases: DiscoverX kinase panel, active-site competition binding (KINOMEscan type), percent of control at one concentration
Settings in all cases: competition binding, percent of control

Another assay addresses T1, PRP4 (Homo sapiens, UniProt Q13523).
T1 construct: gene PRPF4B

The target of a further assay is T2, DRAK1 (Homo sapiens, UniProt Q9UEE5).
T2 construct: gene STK17A

The next assay has as its target T3, NIM1 (Homo sapiens, UniProt Q8IY84).
T3 construct: gene NIM1K

Another assay concerns the target T4, PFTK1 (Homo sapiens, UniProt O94921).
T4 construct: gene CDK14

For a further assay, the target named is T5, MEK3 (Homo sapiens, UniProt P46734).
T5 construct: gene MAP2K3

For the next assay, the target named is T6, ERK2 (Homo sapiens, UniProt P28482).
T6 construct: gene MAPK1
T6 sequence (P28482 whole entry): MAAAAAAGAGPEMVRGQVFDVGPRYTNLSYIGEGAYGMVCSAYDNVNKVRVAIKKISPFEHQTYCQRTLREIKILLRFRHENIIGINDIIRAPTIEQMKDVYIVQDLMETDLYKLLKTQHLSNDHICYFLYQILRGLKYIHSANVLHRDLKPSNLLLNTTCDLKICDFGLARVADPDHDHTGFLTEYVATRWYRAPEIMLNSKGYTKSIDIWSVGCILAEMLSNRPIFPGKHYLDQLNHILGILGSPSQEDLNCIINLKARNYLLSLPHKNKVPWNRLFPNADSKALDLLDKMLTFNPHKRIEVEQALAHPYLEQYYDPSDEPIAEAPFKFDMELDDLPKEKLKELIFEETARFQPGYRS

The target of another assay is T7, TAK1 (Homo sapiens, UniProt O43318).
T7 construct: gene MAP3K7

Chain of WNK3 (Q9BYP7 whole entry): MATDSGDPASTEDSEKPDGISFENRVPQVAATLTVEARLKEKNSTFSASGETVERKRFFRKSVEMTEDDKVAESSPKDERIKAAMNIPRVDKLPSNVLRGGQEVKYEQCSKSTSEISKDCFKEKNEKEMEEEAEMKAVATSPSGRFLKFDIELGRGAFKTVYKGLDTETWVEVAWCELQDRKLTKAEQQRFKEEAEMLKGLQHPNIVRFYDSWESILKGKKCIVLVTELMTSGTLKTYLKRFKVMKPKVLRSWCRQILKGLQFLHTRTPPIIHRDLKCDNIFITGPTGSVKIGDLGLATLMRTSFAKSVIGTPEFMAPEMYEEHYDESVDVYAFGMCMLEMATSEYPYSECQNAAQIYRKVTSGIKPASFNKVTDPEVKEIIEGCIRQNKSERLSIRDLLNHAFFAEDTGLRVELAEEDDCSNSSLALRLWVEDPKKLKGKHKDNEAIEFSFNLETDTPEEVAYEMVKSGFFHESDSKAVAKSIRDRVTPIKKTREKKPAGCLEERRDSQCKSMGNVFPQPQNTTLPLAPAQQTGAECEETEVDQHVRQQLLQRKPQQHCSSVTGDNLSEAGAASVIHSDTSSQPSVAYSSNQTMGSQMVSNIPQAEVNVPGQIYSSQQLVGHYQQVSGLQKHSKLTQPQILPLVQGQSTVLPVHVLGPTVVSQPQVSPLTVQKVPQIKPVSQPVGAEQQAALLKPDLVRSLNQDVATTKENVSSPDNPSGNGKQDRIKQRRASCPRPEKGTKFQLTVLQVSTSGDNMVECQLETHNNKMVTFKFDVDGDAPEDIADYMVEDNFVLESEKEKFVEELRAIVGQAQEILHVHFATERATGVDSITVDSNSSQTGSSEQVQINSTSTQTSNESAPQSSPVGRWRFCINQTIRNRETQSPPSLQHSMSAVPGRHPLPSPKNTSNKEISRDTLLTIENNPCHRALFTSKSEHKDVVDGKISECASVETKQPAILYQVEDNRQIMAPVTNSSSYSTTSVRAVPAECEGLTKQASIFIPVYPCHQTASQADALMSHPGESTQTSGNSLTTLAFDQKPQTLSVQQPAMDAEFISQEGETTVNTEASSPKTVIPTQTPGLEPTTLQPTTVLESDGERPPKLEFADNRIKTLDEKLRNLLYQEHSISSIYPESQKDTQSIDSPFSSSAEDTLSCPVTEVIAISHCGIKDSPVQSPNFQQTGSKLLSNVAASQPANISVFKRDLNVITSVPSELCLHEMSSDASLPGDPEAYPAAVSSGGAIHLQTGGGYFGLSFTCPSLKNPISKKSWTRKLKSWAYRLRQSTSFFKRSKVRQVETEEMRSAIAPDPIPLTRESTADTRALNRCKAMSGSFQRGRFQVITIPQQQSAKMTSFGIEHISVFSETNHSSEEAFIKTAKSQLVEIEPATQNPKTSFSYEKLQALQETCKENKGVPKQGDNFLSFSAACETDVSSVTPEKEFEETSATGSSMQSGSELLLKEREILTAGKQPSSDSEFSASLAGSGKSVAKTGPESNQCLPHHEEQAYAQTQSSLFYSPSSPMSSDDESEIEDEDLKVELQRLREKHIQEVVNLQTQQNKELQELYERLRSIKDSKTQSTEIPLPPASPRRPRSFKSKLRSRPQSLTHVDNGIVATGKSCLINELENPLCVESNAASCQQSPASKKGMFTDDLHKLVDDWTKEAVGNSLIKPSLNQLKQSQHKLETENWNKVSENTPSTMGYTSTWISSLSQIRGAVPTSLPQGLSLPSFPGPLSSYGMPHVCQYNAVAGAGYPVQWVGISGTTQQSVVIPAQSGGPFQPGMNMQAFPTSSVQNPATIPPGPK
Chain of WNK1 (Q9H4A3 whole entry): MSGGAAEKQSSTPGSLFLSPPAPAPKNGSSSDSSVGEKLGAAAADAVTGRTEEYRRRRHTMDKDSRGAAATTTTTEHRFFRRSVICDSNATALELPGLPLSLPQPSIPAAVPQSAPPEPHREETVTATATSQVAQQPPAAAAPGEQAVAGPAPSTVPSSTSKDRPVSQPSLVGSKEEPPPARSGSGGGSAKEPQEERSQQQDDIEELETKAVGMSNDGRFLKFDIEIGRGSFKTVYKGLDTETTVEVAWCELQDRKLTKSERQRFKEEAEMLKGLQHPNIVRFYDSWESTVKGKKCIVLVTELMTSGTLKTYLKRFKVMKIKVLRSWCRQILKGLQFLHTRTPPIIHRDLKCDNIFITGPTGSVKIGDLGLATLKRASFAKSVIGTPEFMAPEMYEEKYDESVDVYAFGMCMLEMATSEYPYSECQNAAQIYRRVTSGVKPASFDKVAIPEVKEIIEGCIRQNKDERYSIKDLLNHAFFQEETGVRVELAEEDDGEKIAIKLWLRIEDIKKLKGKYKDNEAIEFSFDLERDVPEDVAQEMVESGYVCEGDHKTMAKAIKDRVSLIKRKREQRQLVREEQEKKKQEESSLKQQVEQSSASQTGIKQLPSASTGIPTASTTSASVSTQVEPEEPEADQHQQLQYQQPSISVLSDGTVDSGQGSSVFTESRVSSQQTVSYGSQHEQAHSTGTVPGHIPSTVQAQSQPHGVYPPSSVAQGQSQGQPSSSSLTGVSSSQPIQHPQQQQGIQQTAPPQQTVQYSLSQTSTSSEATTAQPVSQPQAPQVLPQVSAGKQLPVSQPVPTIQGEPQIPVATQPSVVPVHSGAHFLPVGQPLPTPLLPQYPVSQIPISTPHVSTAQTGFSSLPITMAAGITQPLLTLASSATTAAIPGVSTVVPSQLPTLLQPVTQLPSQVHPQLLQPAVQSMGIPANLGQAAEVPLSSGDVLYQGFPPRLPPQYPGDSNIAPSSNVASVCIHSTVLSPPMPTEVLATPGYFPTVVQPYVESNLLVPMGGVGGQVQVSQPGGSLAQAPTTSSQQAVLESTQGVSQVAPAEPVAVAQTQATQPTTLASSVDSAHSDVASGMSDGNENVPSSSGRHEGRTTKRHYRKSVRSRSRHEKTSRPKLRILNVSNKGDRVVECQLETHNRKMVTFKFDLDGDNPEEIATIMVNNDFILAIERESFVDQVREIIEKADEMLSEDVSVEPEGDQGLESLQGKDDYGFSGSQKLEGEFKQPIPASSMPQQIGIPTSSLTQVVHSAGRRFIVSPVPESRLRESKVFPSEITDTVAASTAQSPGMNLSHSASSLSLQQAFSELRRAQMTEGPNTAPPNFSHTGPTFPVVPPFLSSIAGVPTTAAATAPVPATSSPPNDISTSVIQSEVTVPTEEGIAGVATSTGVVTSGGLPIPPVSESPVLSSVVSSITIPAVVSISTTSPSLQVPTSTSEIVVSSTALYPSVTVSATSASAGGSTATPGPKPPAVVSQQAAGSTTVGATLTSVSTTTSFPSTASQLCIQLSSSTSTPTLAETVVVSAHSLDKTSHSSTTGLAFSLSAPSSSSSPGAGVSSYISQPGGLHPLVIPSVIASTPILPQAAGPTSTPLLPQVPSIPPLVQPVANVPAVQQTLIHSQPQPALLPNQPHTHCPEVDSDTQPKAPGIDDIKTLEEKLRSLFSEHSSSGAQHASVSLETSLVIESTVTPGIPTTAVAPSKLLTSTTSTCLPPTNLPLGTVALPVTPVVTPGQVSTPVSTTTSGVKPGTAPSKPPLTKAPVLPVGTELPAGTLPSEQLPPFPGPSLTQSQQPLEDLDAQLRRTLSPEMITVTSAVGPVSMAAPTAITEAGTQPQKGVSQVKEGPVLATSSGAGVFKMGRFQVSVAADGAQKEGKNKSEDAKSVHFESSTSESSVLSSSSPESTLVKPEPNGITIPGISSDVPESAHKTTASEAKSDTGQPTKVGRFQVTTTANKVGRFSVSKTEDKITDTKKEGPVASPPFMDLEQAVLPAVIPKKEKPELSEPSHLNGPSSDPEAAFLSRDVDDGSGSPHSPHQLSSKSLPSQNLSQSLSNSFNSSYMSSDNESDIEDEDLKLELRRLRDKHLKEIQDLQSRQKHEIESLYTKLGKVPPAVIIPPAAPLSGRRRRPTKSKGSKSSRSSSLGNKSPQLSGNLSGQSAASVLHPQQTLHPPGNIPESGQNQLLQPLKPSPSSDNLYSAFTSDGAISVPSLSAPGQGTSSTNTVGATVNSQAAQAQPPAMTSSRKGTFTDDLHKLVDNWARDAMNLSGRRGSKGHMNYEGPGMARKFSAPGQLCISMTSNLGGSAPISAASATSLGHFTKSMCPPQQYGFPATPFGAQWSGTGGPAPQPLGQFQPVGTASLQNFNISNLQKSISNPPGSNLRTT
T3 sequence (Q8IY84 whole entry): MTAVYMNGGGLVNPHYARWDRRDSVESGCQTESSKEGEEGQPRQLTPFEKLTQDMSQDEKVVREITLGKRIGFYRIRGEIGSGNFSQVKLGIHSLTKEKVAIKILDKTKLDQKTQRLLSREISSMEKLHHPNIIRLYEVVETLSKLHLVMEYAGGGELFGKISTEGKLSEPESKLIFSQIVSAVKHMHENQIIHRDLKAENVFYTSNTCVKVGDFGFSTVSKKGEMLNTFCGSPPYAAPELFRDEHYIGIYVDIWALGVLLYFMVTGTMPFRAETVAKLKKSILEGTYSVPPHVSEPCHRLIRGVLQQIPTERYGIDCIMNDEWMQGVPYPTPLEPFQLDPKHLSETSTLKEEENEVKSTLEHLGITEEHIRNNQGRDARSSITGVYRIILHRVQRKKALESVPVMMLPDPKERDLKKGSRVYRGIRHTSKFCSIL

Regarding `COc1cc2c(cn1)N(C)C(=O)[C@@H](NC(=O)c1nc3n(n1)[C@H](c1ccccc1)CC3)CC2` [GNE684, (S)-N-((S)-7-methoxy-1-methyl-2-oxo-2,3,4,5-tetrahydro-1H-pyrido[3,4-b]azepin-3-yl)-5-phenyl-6,7-dihydro-5H-pyrrolo[1,2-b][1,2,4]triazole-2-carboxamide], the remaining binding at 10 µM at PRP4 came to 84%; on DRAK1, 92%; on PIK3CD it was 78%; at PLK2 it was 97%; on EGFR(L747-T751del,Sins), 84%; at WNK3, 100%. The remaining binding at 10 µM on IGF1R was 87%; on NIM1 it was 89%; at PFTK1 it was 79%; at MEK3, 87%; on PLK3 it was 89%; on PIM2, 71%. The remaining binding at 10 µM at MET(Y1235D) came out at 82%; at TIE1, 88%; on EPHA4 it was 94%; at EIF2AK1, 100%; at ERK2 it was 100%; on TAK1, 100%. In addition, the remaining binding at 10 µM on AURKB turned out to be 84%; on RIOK3, 100%; at WNK1 it was 100%.
